The conditions of data set [1]: 298.15 K; 101.33 kPa; Liquid; Vibrating tube method.
A short description of data set [2]: refractive index (Na D-line) (dimensionless). To be noted: 298.15 K; 101.33 kPa; Liquid; Standard Abbe refractometry.

The record followed here is the NIST ThermoML archive (doi:10.1016/j.jct.2015.10.018).

Numbers after ± are expanded uncertainties.

As to `CCn1cc[n+](C)c1.N#CN=C=[N-]` [1-ethyl-3-methylimidazolium dicyanamide], the mass density in data set [1] is reported as 1102.03 ± 1.1 kg/m3. Further, the refractive index in data set [2] was 1.51452 ± 0.00051.

As for `C1CCCCC1` [cyclohexane], the mass density in data set [1] is 773.88 ± 0.17 kg/m3. The refractive index in data set [2] is on record as 1.42356 ± 0.00033.

For the compound `CCCCCCC` [heptane], the mass density in data set [1] is reported as 679.57 ± 0.25 kg/m3. Further, in data set [2], the refractive index was determined as 1.38529 ± 0.00037.

Turning to `Cc1ccccc1` [toluene], in data set [1], the mass density stood at 862.23 ± 0.13 kg/m3. In data set [2], the refractive index came out at 1.49398 ± 0.00031.
